Patent US10130633B2, “Compounds” (BAYER PHARMA AKTIENGESELLSCHAFT, priority 2013, dated 2018)

Assays:
[1] = system: constitutive active colorectal cancer cell (CRC) Wnt pathway; test: HCT116 TOPFlash cellular reporter assay (Super TopFlash luciferase), constitutive active Wnt pathway; format: cell-based; settings: HCT116 TOP reporter cells, 36 hours incubation, luciferase expression
Experimental: In order to discover and characterize small molecules which inhibit the constitutive active colorectal cancer cell (CRC) Wnt pathway, a cellular reporter assay was employed. […] Stable transfectants were generated by cotransfection with pcDNA3 and selection of stable transfected cells with 1 mg/ml G418.

[2] = system: HCT116 FOP control reporter cell line; test: HCT116 FOPFlash control reporter assay (FOP control vector, non-functional TCF elements); format: cell-based; settings: HCT116 FOP control reporter cells, 36 hours incubation, luciferase expression
Source text: In a parallel approach, HCT116 cells were cotransfected with the FOP control vector and pcDNA3. The FOP vector is identical to the TOP construct, but it contains instead of functional TCF elements a randomized, non-functional sequence. For this transfection a stable transfected cell line was generated as well.

IC50 [1]	IC50 [2]	IC50 ([1]; Homo sapiens, HCT-116, 36 h)	IC50 ([2]; Homo sapiens, HCT-116, 36 h)	Structure (SMILES)
0.148 µM	9.8 µM	–	–	CC(C(=O)Nc1cc(C(=O)Nc2ccc(-c3cc(F)cc(F)c3)nc2)ccc1OC(F)(F)F)N1C[C@@H]2C[C@H]1CO2 (relative stereo) [Example 180, N-[6-(3,5-difluorophenyl)pyridin-3-yl]-3-({(2R*)-2-[(1S,4S)-2-oxa-5-azabicyclo[2.2.1]hept-5-yl]propanoyl}amino)-4-(trifluoromethoxy)benzamide]
–	–	0.592 µM	32.5 µM	COCCNC(=O)c1ccc(C(=O)Nc2nnc(-c3ccccc3)s2)cc1NC(=O)CN1CCN(C)CC1 [Example 155, N^1-(2-methoxyethyl)-2-{[(4-methylpiperazin-1-yl)acetyl]amino}-N^4-(5-phenyl-1,3,4-thiadiazol-2-yl)terephthalamide]
0.028 µM	7.7 µM	–	–	CC(C(=O)Nc1cc(C(=O)Nc2ccc(-c3cccc(F)c3)nc2)ccc1OC(F)(F)F)N1C[C@@H]2C[C@H]1CO2 (relative stereo) [Example 243, N-[6-(3-fluorophenyl)pyridin-3-yl]-3-({(2R*)-2-[(1S,4S)-2-oxa-5-azabicyclo[2.2.1]hept-5-yl]propanoyl}amino)-4-(trifluoromethoxy)benzamide]
–	–	0.315 µM	≥ 50 µM	COCc1ccc(C(=O)Nc2nnc(-c3ccccc3C)s2)cc1NC(=O)CN1CCOCC1 [Example 176, 4-(methoxymethyl)-N-[5-(2-methylphenyl)-1,3,4-thiadiazol-2-yl]-3-[(morpholin-4-ylacetyl)amino]benzamide]
0.0402 µM	24.6 µM	–	–	CC(C(=O)Nc1cc(C(=O)Nc2ccc(-c3ccccc3F)nc2)ccc1C(F)(F)F)N1CCOCC1 (stereo not drawn) [Example 211, N-[6-(2-fluorophenyl)pyridin-3-yl]-3-{[2-(morpholin-4-yl)propanoyl]amino}-4-(trifluoromethyl)benzamide]
–	–	0.152 µM	29.5 µM	CN1CCN(CC(=O)Nc2cc(C(=O)Nc3ccc(-c4ccccc4F)nc3)ccc2C(F)(F)F)CC1 [Example 210, N-[6-(2-fluorophenyl)pyridin-3-yl]-3-{[(4-methylpiperazin-1-yl)acetyl]amino}-4-(trifluoromethyl)benzamide]
–	–	0.132 µM	30 µM	O=C(CN1CCOCC1)Nc1cc(C(=O)Nc2nnc(-c3cccc(F)c3)s2)ccc1OC(F)(F)F [Example 153, N-[5-(3-fluorophenyl)-1,3,4-thiadiazol-2-yl]-3-[(morpholin-4-ylacetyl)amino]-4-(trifluoromethoxy)benzamide]
–	–	0.119 µM	≥ 50 µM	CN1CCN(CC(=O)Nc2cc(C(=O)Nc3nnc(-c4ccccc4)s3)ccc2OCC2CC2)CC1 [Example 259, 4-(cyclopropylmethoxy)-3-{[(4-methylpiperazin-1-yl)acetyl]amino}-N-(5-phenyl-1,3,4-thiadiazol-2-yl)benzamide]
–	–	0.293 µM	10 µM	CN(C)C1(C(=O)Nc2cc(C(=O)Nc3ccc(-c4ccccc4F)nc3)ccc2OC2CC2)CC1 [Example 140, 4-(cyclopropyloxy)-3-({[1-(dimethylamino)cyclopropyl]carbonyl}amino)-N-[6-(2-fluorophenyl)pyridin-3-yl]benzamide]
–	–	0.37 µM	14 µM	O=C(Nc1ccc(-c2ccccc2F)nc1)c1ccc(F)c(NC(=O)C2(N3CCOCC3)CC2)c1 [Example 77, 4-fluoro-N-[6-(2-fluorophenyl)pyridin-3-yl]-3-({[1-(morpholin-4-yl)cyclopropyl]carbonyl}amino)benzamide]
–	–	0.076 µM	≥ 50 µM	CN1CCN(CC(=O)Nc2cc(C(=O)Nc3nnc(-c4ccccc4F)s3)ccc2OC(F)(F)F)CC1 [Example 150, N-[5-(2-fluorophenyl)-1,3,4-thiadiazol-2-yl]-3-{[(4-methylpiperazin-1-yl)acetyl]amino}-4-(trifluoromethoxy)benzamide]
0.0955 µM	5.4 µM	–	–	CC(C(=O)Nc1cc(NC(=O)c2ccc(-c3cc(F)cc(F)c3)nc2)ccc1OC(F)(F)F)N1CC2CCC(C1)O2 (stereo not drawn) [Example 186, 6-(3,5-difluorophenyl)-N-[3-{[2-(8-oxa-3-azabicyclo[3.2.1]oct-3-yl)propanoyl]amino}-4-(trifluoromethoxy)phenyl] nicotinamide]
0.0765 µM	32.8 µM	–	–	CC(C(=O)Nc1cc(NC(=O)c2ccc(-c3ccccc3F)nc2)ccc1OC(F)(F)F)N1CC2CCC(C1)O2 (stereo not drawn) [Example 204, 6-(2-fluorophenyl)-N-[3-{[2-(8-oxa-3-azabicyclo[3.2.1]oct-3-yl)propanoyl]amino}-4-(trifluoromethoxy)phenyl] nicotinamide]
–	–	0.087 µM	26.4 µM	Cc1ccccc1-c1nnc(NC(=O)c2ccc(OC(F)(F)F)c(NC(=O)CN3CCOCC3)c2)s1 [Example 98, N-[5-(2-methylphenyl)-1,3,4-thiadiazol-2-yl]-3-[(morpholin-4-ylacetyl)amino]-4-(trifluoromethoxy)benzamide]
0.0876 µM	–	–	36.5 µM	CC(C(=O)Nc1cc(NC(=O)c2ccc(-c3ccccc3F)nc2)ccc1OC(F)(F)F)N1CCOCC1 (stereo not drawn) [Example 206, 6-(2-fluorophenyl)-N-[3-{[2-(morpholin-4-yl)propanoyl]amino}-4-(trifluoromethoxy)phenyl] nicotinamide]
–	–	0.202 µM	≥ 50 µM	O=C(CN1CCOCC1)Nc1cc(C(=O)Nc2cnc(-c3ccccc3)s2)ccc1OC(F)(F)F [Example 122, 3-[(morpholin-4-ylacetyl)amino]-N-(2-phenyl-1,3-thiazol-5-yl)-4-(trifluoromethoxy)benzamide]
–	–	0.25 µM	≥ 50 µM	Nc1ccc(-c2nnc(NC(=O)c3ccc(OC(F)(F)F)c(NC(=O)CN4CCOCC4)c3)s2)cc1 [Example 263, N-[5-(4-aminophenyl)-1,3,4-thiadiazol-2-yl]-3-[(morpholin-4-ylacetyl)amino]-4-(trifluoromethoxy)benzamide]
–	–	0.385 µM	≥ 50 µM	CN1CCN(CC(=O)Nc2cc(C(=O)Nc3nnc(-c4ccccc4)s3)ccc2C(F)(F)F)CC1 [Example 59, 3-{[(4-methylpiperazin-1-yl)acetyl]amino}-N-(5-phenyl-1,3,4-thiadiazol-2-yl)-4-(trifluoromethyl)benzamide]
0.124 µM	15.2 µM	–	–	CC(C(=O)Nc1cc(NC(=O)c2ccc(-c3cc(F)cc(F)c3)nc2)ccc1OC(F)(F)F)N1CCOCC1 (stereo not drawn) [Example 203, 6-(3,5-difluorophenyl)-N-[3-{[2-(morpholin-4-yl)propanoyl]amino}-4-(trifluoromethoxy)phenyl] nicotinamide]
–	–	0.42 µM	≥ 50 µM	O=C(CN1CCOCC1)Nc1cc(C(=O)Nc2nnc(-c3cccc(Cl)c3)s2)ccc1OC(F)(F)F [Example 154, N-[5-(3-chlorophenyl)-1,3,4-thiadiazol-2-yl]-3-[(morpholin-4-ylacetyl)amino]-4-(trifluoromethoxy)benzamide]
–	–	0.173 µM	≥ 50 µM	O=C(Nc1nnc(-c2ccc(F)cc2)s1)c1ccc(OC(F)(F)F)c(NC(=O)C2(N3CCOCC3)CC2)c1 [Example 90, N-[5-(4-fluorophenyl)-1,3,4-thiadiazol-2-yl]-3-({[1-(morpholin-4-yl)cyclopropyl]carbonyl}amino)-4-(trifluoromethoxy)benzamide]
–	10 µM	0.138 µM	–	CC(C(=O)Nc1cc(NC(=O)c2ccc(-c3cccc(F)c3)nc2)ccc1OC(F)(F)F)N1CCOCC1 (stereo not drawn) [Example 189, 6-(3-fluorophenyl)-N-[3-{[2-(morpholin-4-yl)propanoyl]amino}-4-(trifluoromethoxy)phenyl] nicotinamide]
0.106 µM	28.6 µM	–	–	CC(C(=O)Nc1cc(NC(=O)c2ccc(-c3cccc(F)c3)nc2)ccc1OC(F)(F)F)N1CCOCC1 (stereo not drawn) [Example 201, 6-(3-fluorophenyl)-N-[3-{[2-(morpholin-4-yl)propanoyl]amino}-4-(trifluoromethoxy)phenyl] nicotinamide]
–	–	0.15 µM	≥ 50 µM	O=C(CN1CCOCC1)Nc1cc(C(=O)Nc2nnc(-c3ccccc3)s2)ccc1OC(F)(F)F [Example 55, 3-[(morpholin-4-ylacetyl)amino]-N-(5-phenyl-1,3,4-thiadiazol-2-yl)-4-(trifluoromethoxy)benzamide]

Structure (SMILES)	IC50 [1]	IC50 [2]	IC50 ([1]; Homo sapiens, HCT-116, 36 h)	IC50 ([2]; Homo sapiens, HCT-116, 36 h)
C[C@@H](C(=O)Nc1cc(C(=O)Nc2ccc(-c3ccc(CO)cc3)nc2)ccc1OC(F)(F)F)N1CCOCC1 (single isomer, unassigned) [Example 120, N-{6-[4-(hydroxymethyl)phenyl]pyridin-3-yl}-3-{[(2S)-2-(morpholin-4-yl)propanoyl]amino}-4-(trifluoromethoxy)benzamide or N-{6-[4-(hydroxymethyl)phenyl]pyridin-3-yl}-3-{[(2R)-2-(morpholin-4-yl)propanoyl]amino}-4-(trifluoromethoxy)benzamide]	0.105 µM	≥ 50 µM	–	–
C[C@@H](C(=O)Nc1cc(C(=O)Nc2ccc(-c3ccc(N(C)C)cc3)nc2)ccc1OC(F)(F)F)N1CCOCC1 (single isomer, unassigned) [Example 116, N-{6-[4-(dimethylamino)phenyl]pyridin-3-yl}-3-{[(2S)-2-(morpholin-4-yl)propanoyl]amino}-4-(trifluoromethoxy)benzamide or N-{6-[4-(dimethylamino)phenyl]pyridin-3-yl}-3-{[(2R)-2-(morpholin-4-yl)propanoyl]amino}-4-(trifluoromethoxy)benzamide]	0.084 µM	8.1 µM	–	–
CN1C2CCC1CN(CC(=O)Nc1cc(C(=O)Nc3ccc(-c4ccccc4F)nc3)ccc1OC(F)(F)F)C2 [Example 166, N-[6-(2-fluorophenyl)pyridin-3-yl]-3-{[(8-methyl-3,8-diazabicyclo[3.2.1]oct-3-yl)acetyl]amino}-4-(trifluoromethoxy)benzamide]	–	–	0.148 µM	3.9 µM
